# According to patent US12070464B2, “Methods of treating myeloproliferative disorders” (priority 2019, dated 2024):
# What was measured:
# [1] = tested on: patients with refractory or intolerant myelofibrosis already being administered Rux; test: Phase 2 study, Arm 2 (Compound 1 add-on to ruxolitinib); assay type: in vivo, human
# Description: (§1) A Phase 2 study of Compound 1 in subjects with myelofibrosis (MF) was conducted. Three treatment arms were studied: Arm 2=combination add-on treatment of Compound 1 in patients (pts) who are already being administered Rux. In this arm patients were further stratified based on transfusion dependence status [transfusion dependent (TD), defined as an average of >2 units per month over 12 wks, or non-TD cohorts]. The starting dose of Compound 1 was 125 mg daily on days 1-14 of a 21-day cycle in both arms. Primary endpoint: spleen volume response (SVR) for non-TD cohorts or TD to transfusion independence (TI, no transfusion for consecutive 12 wks) conversion for TD cohorts; secondary endpoints: change in total symptom score (TSS) per […]4.0, patient global impression of change (PGIC), safety and PK; additional endpoints: changes in proinflammatory Ck levels, BM morphology and mutant allele burden. The starting dose of Compound 1 was 125 mg given orally, once daily for 2 weeks on/1 week off in a 21-day dosing cycle. Two separate time points for data analysis occurred for at least Arms 1 and 2 and are discussed below: one at approximately 12 weeks of treatment (first assessment of spleen volume by MRI or CT and every 12 weeks thereafter) and another at approximately 24 weeks of treatment (first assessment of bone marrow biopsy and every 24 weeks thereafter). Patients were added to the study following the first time point. Patients were added to the study following the first data cut and treatment was continued for approximately 25.9 weeks (median, range: 0.4, 116.6).
# [2] = tested on: patients with refractory or intolerant myelofibrosis no longer on Rux; test: Phase 2 study, Arm 1 (Compound 1 monotherapy); assay type: in vivo, human; conditions: for average spleen volume reduction: 24 weeks, FIG. 13A
# Description: as §1, with “1=monotherapy with” for “2=combination add-on treatment of”, “no longer on Rux and are with refractory, intolerant, or ineligible.” for “already being administered Rux.”, “cohorts].” for “cohorts]. The starting dose of Compound 1 was 125 mg daily on days 1-14 of a 21-day cycle in both arms.”
# [3] = tested on: CD34+ cells isolated from healthy donor bone marrow; test: Megakaryocyte differentiation, single agent, 14 days (FACS); assay type: cell-based; conditions: FIG. 2
# Description: The effects of Compound 1 on megakaryocyte differentiation and proliferation were evaluated using CD34+ cells isolated from healthy donor bone marrow (data on file). The CD34+cells were grown in megakaryocyte differentiation serum-free stem cell differentiation base medium with a megakaryocyte-driving cytokine cocktail for 14 days with DMSO or Compound 1 at concentrations ranging from 3 nM to 500 nM. The cells were then stained for CD34 (progenitor marker), CD45 (leukocyte marker) and CD41a (mature megakaryocyte marker) and assessed by FACS for viability and marker expression. CD41a expression and cell size were used as markers of megakaryocyte differentiation. […] The shift from high to low CD41a expression began at approximately 50 nM, with pronounced effects observed at 200 to 500 nM, as shown in FIG. 2.
# [4] = tested on: IL6 release from the THP-1 acute leukemia cells; test: IL6 release from LPS-treated THP-1 cells; assay type: cell-based; conditions: Homo sapiens, lipopolysaccharide treatment, then Compound 1 for 16 hours
# Description: Compound 1 was assessed for its ability to suppress the expression of NF-κB target genes in two experiments. In one experiment, THP-1 acute leukemia cell lines were exposed to lipopolysaccharide treatment and then Compound 1 for 16 hours. […] In the other experiment, the ability of Compound 1 to suppress both IL6 and ILIO expression in TMD8 ABC-DLBCL cells was investigated (data on file). TMD8 cells were incubated with DMSO or 1.6 μM Compound 1 for 6 or 24 hours. RNA was then extracted from the cells and quantified using qRT-PCR.
# [5] = Time Point 1, Compound 1 with ruxolitinib
smiles,measurement,setting,value
"Cc1noc2c1-c1ccccc1C(c1ccc(Cl)cc1)=N[C@H]2CC(N)=O [Compound 1, 2-((4S)-6-(4-chlorophenyl)-1-methyl-4H-benzo[c]isoxazolo[4,5-e]azepin-4-yl)acetamide]",TD patients converted to TI,[1]; [5],4 patients
same,duration of TI in 2 of the converted patients,[1]; [5],> 36 wks
same,patients with increase in hemoglobin by 1.5 mg/dL post-baseline,"[1]; Time Point 1, Compound 1 with ruxolitinib, 4 of 25",16%
same,average spleen volume reduction,"[1]; Time Point 2, 24 weeks, non-transfusion dependent at start, FIG. 12A",about −10.9%
same,average spleen volume reduction,"[1]; Time Point 2, 24 weeks, transfusion dependent at start",about −24.9%
same,patients converted from transfusion dependent to transfusion independent,"[1]; Time Point 2, 24 weeks, transfusion dependent at start, FIG. 10A",about 35%
same,average time of conversion from TD to TI,"[1]; Time Point 2, Arm 2",about 14 weeks
same,average transfusion free time post-conversion,"[1]; Time Point 2, Arm 2",about 14 weeks
same,maximum transfusion free time post-conversion,"[1]; Time Point 2, Arm 2",85 weeks
same,patients with greater than or equal to a 50% reduction in transfusion intensity,"[1]; Time Point 2, Arm 2",About 41%
same,patients with improvement in bone marrow fibrosis,"[1]; Time Point 2, non-transfusion dependent at start",about 25%
same,patients with improvement in disease symptoms per TSS,"[1]; Time Point 2, non-transfusion dependent at start, FIG. 12B",About 38%
same,patients with improved PGIC,"[1]; Time Point 2, non-transfusion dependent at start, FIG. 12C",about 69%
same,patients with improvement in disease symptoms per TSS,"[1]; Time Point 2, transfusion dependent at start, FIG. 10B",About 76.5%
same,patients with improved PGIC,"[1]; Time Point 2, transfusion dependent at start, FIG. 10C",about 75%
same,patients with increase in hemoglobin by 1.5 mg/dL post-baseline,"[2]; Time Point 1, monotherapy, 4 of 8",50%
same,average spleen volume reduction,"[2]; Time Point 2, TD patients (Cohort 1A)",about −3.2%
same,average spleen volume reduction,"[2]; Time Point 2, non-TD patients (Cohort 1B)",about −26%
same,patients with improved PGIC,"[2]; Time Point 2, TD patients",about 50%
same,patients with improvement in bone marrow fibrosis,"[2]; Time Point 2, TD patients",about 25%
same,patients with improved PGIC,"[2]; Time Point 2, non-TD patients",100%
same,patients with improvement in disease symptoms per TSS,"[2]; Time Point 2, non-TD patients",About 60%
same,concentration at which shift from high to low CD41a expression began,[3],approximately 50 nM
same,IC50,[4],69 nM
